Laboratory results taken from the METLIN SMRT retention time set (Domingo-Almenara et al. 2019).

Test: gradient 5% acetonitrile 3 min, to 50% in 2 min, to 85% in 15 min, held 3 min, 100 µL/min
Conditions: column: Zorbax Extend-C18 2.1 x 50 mm; eluents: water / acetonitrile, 0.1% formic acid
Summary of the method: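 Pure standards were analyzed in mixtures of ~100 molecules using HPLC coupled to a quadrupole time-of-flight mass spectrometer, in both positive and negative ionization mode. Separation used a Zorbax Extend-C18 column (2.1 × 50 mm, 1.8 μm) at 100 μL/min, with water and acetonitrile each containing 0.1% formic acid. Dead and dwell volumes were 40 μL and 900 μL, and data were collected over 3 months. Retention time was read from computationally picked adduct peaks, each inspected manually.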

SMILES | RP-LC retention time
Cc1ccoc1C(=O)N1CC(F)(F)C[C@H]1c1nc(C2CC2)no1 | 723 s
CCOc1ccccc1NC(=O)Nc1ccc(CC(=O)NCC(F)(F)F)cc1 | 815 s
O=C(CSc1ccc(N2CCCC(C(=O)NC3CC3)C2)nn1)Nc1c(F)cccc1F (centres undefined) | 617 s
CCCCN1C(=O)CN(C2CCCCC2)C(=O)C1c1ccc(OC)c(OC)c1 (centres undefined) | 877 s
CCC1CN(CC(=O)NCCN(CC)CC)c2ccccc2S1 (centres undefined) | 680 s
N#Cc1ccsc1NC(=O)c1ccc(S(=O)(=O)N2CCOCC2)cc1 | 749 s
O=S1(=O)C[C@H](N2CCN(c3ccccn3)CC2)[C@@H](S(=O)(=O)c2ccc(Cl)cc2)C1 | 643 s
COc1ccc(NC(=O)C2CCCN(c3nnc4c(Cl)cccn34)C2)cc1OC (centres undefined) | 667 s
Cc1cc(C)cc(Nc2c(-c3ccc(N4CCOCC4)cc3)nc3ncccn23)c1 | 719 s
COC(=O)C1=C(CN2CCN(C)CC2)NC(=O)NC1c1ccccc1Cl (centres undefined) | 597 s
O=C(Nc1cccc(F)c1)c1csc(-c2ccc(N3CCCC3)nc2)n1 | 772 s
CCc1cccc(NC(=O)N2CCc3c(c(COc4ccccc4)nn3C)C2)c1 | 934 s
COc1ccc(S(=O)(=O)NCCCn2ccnc2)cc1C(C)(C)C | 589 s
CCOC(=O)Cn1nc(-c2nc(-c3ccc(Cl)cc3)no2)ccc1=O | 1040 s
COCCN(CCNC(=O)c1cc(-c2ccccn2)nc2ccccc12)Cc1ccco1 | 660 s
COc1ccccc1CNC(=O)C1CCN(S(C)(=O)=O)c2cc(Cl)ccc2O1 (centres undefined) | 910 s
Cc1cc(C(F)F)n2nc(C(=O)Nc3cc(F)ccc3C)nc2n1 | 852 s
CC1CCCN(S(=O)(=O)c2ccc(-n3cnc(C(=O)N4CCN(C)CC4)c3)nc2)C1 (centres undefined) | 648 s
CCN1c2ccc(F)cc2C(=O)NC12CCN(C(=O)c1ccc(F)c(F)c1)CC2 | 822 s
CC(C)NC(=O)c1ccc2c(c1)CCCN2C(=O)c1ccc(F)cc1 | 784 s
Cc1ccc(NC(=O)CN2C(=O)NC3(CCCCC3)C2=O)c(C)c1 | 774 s
Cc1cccc(-c2[nH]c(C(C)(C)C)nc2-c2ccc3nccnc3c2)n1 | 659 s
CSc1ccc(NC(=O)N2CCN(c3cnn4c(C)nnc4c3)CC2)cc1 | 576 s

SMILES | RP-LC retention time
CC1=C(C(=O)Nc2cccc(C(=O)N3CCN(c4ccccc4)CC3)c2)SCCO1 | 873 s
O=C(c1ccco1)N1CCc2c([nH]c3ccccc23)C1c1ccc(F)cc1 (centres undefined) | 1080 s
CCc1nnc(-c2ccc3ccn(CC(=O)Nc4cccc(OC)c4)c3c2)o1 | 839 s
O=C(NCCN1CCc2ccccc2C1)c1cccc2c1CCN2C(=O)C1CC1 | 640 s
Cc1ccc(CNC(=O)c2nnc(-c3ccc(S(=O)(=O)N4CCCCC4)cc3)o2)cc1 | 1020 s
O=C(Nc1cccc(Cl)c1F)c1cnc(-c2ccccc2)nc1-c1ccncc1 | 964 s
Cc1nn(C)c(C)c1CCNC(=O)Nc1cccc(Br)c1 | 677 s
O=c1c2ccc(O)cc2oc2cc(O)ccc12 | 612 s
CCCNC(=O)C1CCCN(c2ccc(SCC(=O)Nc3c(F)cccc3F)nn2)C1 (centres undefined) | 628 s
CCn1c(-c2cccc(C(N)=O)c2)nc2cccnc21 | 591 s
CC1=C(c2cccc(Cl)c2)S(=O)(=O)N=C1N1CCCN(C(=O)C2CC2)CC1 | 763 s
CCOc1ccc2ncc(C#N)c(NCc3ccccc3)c2c1 | 634 s
CC(C)Cn1cc(S(=O)(=O)N2CCN(c3ccccc3F)CC2)c2cccnc21 | 1140 s
CCNc1cc(N2CCCC(CCC(=O)NC(C)c3cn(C)nc3C)C2)ncn1 (centres undefined) | 592 s
CCCCC(=O)Nc1nc(-c2ccc3c(c2)NC(=O)CO3)c(C)s1 | 839 s
COc1ccc(CCC(=O)N2CCC3(C2)C(=O)Nc2ccc(OC)cc23)cc1 (centres undefined) | 751 s
CC1CCN(c2nnc(-n3cccc3CN3CCN(c4ccccn4)CC3)s2)CC1 | 658 s
Cc1ccc(Cl)cc1NS(=O)(=O)c1ccc2onc(C(=O)N3CCCC3)c2c1 | 1030 s
Cc1sc2cc(C(=O)NCCN3CCOCC3)[nH]c2c1CN1CCCCC1 | 551 s
CNC(=O)c1ccc(-c2nc3cc(NS(=O)(=O)c4ccc5c(c4)CCCC5)ccc3n2C)cc1 | 685 s
O=C(COc1ccccc1-c1nnc(-c2ccccc2)o1)NCc1ccco1 | 961 s
Nc1nc(SCC(=O)c2ccc(-c3ccccc3)cc2)n[nH]1 | 677 s
Cc1ccccc1NC(=O)N1c2ccccc2NC2=C(C(=O)CCC2)C1c1ccco1 (centres undefined) | 817 s

SMILES | RP-LC retention time
CN1C(=O)c2cc(C(=O)N3CCN(c4ccccc4F)CC3)nn2CC1(C)C(=O)NC1CCCC1 (centres undefined) | 801 s
COCc1ncc(C)n1CC1CN(C(=O)C2(c3ccccc3)CC2)C1 | 621 s
O=C(c1ccsc1)N1CCCn2nc(-c3ccc(Cl)cc3)cc2C1 | 945 s
CCCn1cc(S(=O)(=O)Nc2ccc(F)cc2C)c2cccnc21 | 926 s
CC(C)c1cnc2c(c1SCc1ccccn1)c(=O)n(C)c(=O)n2C | 737 s
CCOc1ccc(S(=O)(=O)N2CCC(c3noc(-c4cccc(F)c4)n3)CC2)cc1 | 1190 s
CCOc1ccccc1-c1csc(NC(=O)Cc2csc(-c3ccccc3)n2)n1 | 1240 s
Cc1cccc(Cn2c(CN3CCC(C(=O)NC4CCCCCCC4)CC3)cc3ccccc32)c1 | 936 s
N#Cc1cccc(CN2CCC(c3nncn3-c3ccccc3)CC2)c1 | 584 s
CCN1CCN(c2cc(C)c3cc(NC(=S)N4CCN(c5ccccc5F)CC4)ccc3n2)CC1 | 620 s
CC(=O)N1c2ccc(S(=O)(=O)N3CCCCCC3)cc2CC1C(=O)NCCc1ccc(C)cc1 (centres undefined) | 957 s
Cc1oc2c(c1C(=O)N1CCN(c3cccc(C(F)(F)F)c3)CC1)C1=NCCN1C=N2 | 692 s
Cc1c(C(=O)C(=O)NCCc2ccccc2)c2ccccc2n1C | 887 s
CCn1cnc(S(=O)(=O)N2CCC(C(=O)Nc3cc(C)ccc3OC)CC2)c1 | 674 s
CCOC(=O)c1cn(Cc2ccc(F)cc2)c2nc(C)ccc2c1=O | 854 s
CCN1c2ccc(F)cc2C(=O)NC12CCN(C(=O)c1ccc(OC)cc1)CC2 | 773 s
COc1nn(C)cc1C(=O)Nc1ccc(C(=O)Nc2cccc(-c3csc(C)n3)c2)cc1 | 748 s
O=C(c1cccs1)N1CCc2cc(-c3csc(C4CC4)n3)ccc21 | 1150 s
CCn1ncc(NC(=O)COc2ccccc2C)c(N2CCOCC2)c1=O | 889 s
COc1ccc(OCC(=O)N2CCc3cc(-c4csc(C)n4)ccc32)cc1 | 958 s
CCCCOc1ccc(-c2nc3ncccn3c2NC2CCCCC2)cc1 | 957 s
CN(Cc1cc(Cl)ccc1F)C1CCc2nnc(C3CCOCC3)n2CC1 (centres undefined) | 592 s
Cc1nn2c(CNS(=O)(=O)c3cccc(Cl)c3)c(-c3ccccc3)nc2s1 | 916 s

SMILES | RP-LC retention time
COc1ccc(OCc2noc(CNC(=O)Cn3cnc4ccccc43)n2)cc1 | 592 s
Cc1cc(N2CCN(S(=O)(=O)c3cccc(Cl)c3)CC2)nc(NC2CCCCC2)n1 | 844 s
COc1cc2nccc(Oc3ccc(NC(=O)Nc4ccc(F)cc4F)c(F)c3)c2cc1OC | 782 s
Cc1sc2ncnc(N3CCCC(C)C3)c2c1C(=O)Nc1cccc(F)c1C (centres undefined) | 1300 s
CCC(C(=O)NCc1ccc(C)o1)n1nc(C)c2c(C)n(-c3ccccc3)nc2c1=O (centres undefined) | 862 s
Cc1ccc(-c2noc(Cc3nc(-c4ccccc4)cs3)n2)cc1 | 1260 s
CCOc1cc(=O)n2c(c1C(=O)OCc1cccc(C)c1)CCCC2 | 926 s
Cn1nc2n(c1=O)CCN(S(=O)(=O)c1cccc3cccnc13)CC2 | 649 s
COc1ccc(-c2n[nH]c3c2C(c2ccc(OC)c(OC)c2)NC3=O)cc1 (centres undefined) | 637 s
O=C(CN1C(=O)C2CCCCN2c2ccc(S(=O)(=O)N3CCCC3)cc21)NCCc1ccco1 (centres undefined) | 885 s
C[C@H](NCc1ccc(OCc2cccc(F)c2)cc1)C(N)=O | 708 s
O=C(c1c(F)cccc1Cl)N1CCN(c2nccn2-c2ccccc2F)CC1 | 574 s
COc1ccc(-c2nc3cnccn3c2NCc2ccccc2)cc1 | 719 s
CCn1c(=O)sc2cc(S(=O)(=O)N3CCC(C(=O)Nc4ccccc4OC)CC3)ccc21 | 917 s
CCC(=O)N(CC(=O)N1CCc2sccc2C1COc1cccc(OC)c1)CC1CCCO1 (centres undefined) | 858 s
COc1cccc(CNC(=O)Cn2c(=O)c3cc(-c4ccco4)nn3c3ncccc32)c1 | 771 s
O=C(Nc1ccc(C2(C(=O)O)CCC2)cc1)C1CC1 | 710 s
O=C(NC1CCN(c2cc(-c3ccc(F)cc3)[nH]n2)C1)c1ccccc1 (centres undefined) | 705 s
COCC1CCN(C(=O)C2CCN(c3cnn(Cc4ccccc4)c(=O)c3)CC2)CC1 | 727 s
CCN1CCn2cc(S(=O)(=O)Nc3cc(Cl)ccc3OC)cc2C1=O | 764 s
